According to patent publication US7332482B2, “Method for treating benign prostatic hyperplasia” (BioXell S.p.A., priority 2003, dated 2008):
“Also recorded” adds a separate entry of the source. Marks after values point to notes of the source that are not given here.

T1: AR (Homo sapiens, UniProt P10275)
T1 sequence (P10275 1-920): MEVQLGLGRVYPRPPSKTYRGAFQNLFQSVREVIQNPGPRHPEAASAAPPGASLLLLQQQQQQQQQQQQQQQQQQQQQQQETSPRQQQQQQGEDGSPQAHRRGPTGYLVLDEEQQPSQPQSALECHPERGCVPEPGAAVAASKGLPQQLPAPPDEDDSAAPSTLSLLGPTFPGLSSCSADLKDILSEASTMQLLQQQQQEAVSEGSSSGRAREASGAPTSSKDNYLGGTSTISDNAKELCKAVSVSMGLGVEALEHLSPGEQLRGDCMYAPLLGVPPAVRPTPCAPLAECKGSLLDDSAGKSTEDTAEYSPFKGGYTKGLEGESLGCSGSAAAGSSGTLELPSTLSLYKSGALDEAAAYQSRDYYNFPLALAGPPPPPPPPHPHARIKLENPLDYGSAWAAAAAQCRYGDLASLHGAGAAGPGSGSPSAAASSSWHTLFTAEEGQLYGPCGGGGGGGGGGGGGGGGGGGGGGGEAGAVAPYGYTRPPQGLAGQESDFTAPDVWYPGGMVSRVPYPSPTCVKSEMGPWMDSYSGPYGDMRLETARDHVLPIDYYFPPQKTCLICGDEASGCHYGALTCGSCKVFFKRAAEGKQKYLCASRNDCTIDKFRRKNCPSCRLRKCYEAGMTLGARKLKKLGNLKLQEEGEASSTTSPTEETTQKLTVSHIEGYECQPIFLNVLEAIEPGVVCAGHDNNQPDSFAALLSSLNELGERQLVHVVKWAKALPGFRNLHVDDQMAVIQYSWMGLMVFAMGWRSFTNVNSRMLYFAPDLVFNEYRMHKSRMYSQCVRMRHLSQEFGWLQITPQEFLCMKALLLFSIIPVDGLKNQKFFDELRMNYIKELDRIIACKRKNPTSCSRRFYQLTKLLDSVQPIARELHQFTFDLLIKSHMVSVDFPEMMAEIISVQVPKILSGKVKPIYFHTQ

T2: 5α reductase type 2 (Homo sapiens, UniProt P31213)
T2 construct: host or cells: CHO 1829
T2 sequence (P31213 1-254): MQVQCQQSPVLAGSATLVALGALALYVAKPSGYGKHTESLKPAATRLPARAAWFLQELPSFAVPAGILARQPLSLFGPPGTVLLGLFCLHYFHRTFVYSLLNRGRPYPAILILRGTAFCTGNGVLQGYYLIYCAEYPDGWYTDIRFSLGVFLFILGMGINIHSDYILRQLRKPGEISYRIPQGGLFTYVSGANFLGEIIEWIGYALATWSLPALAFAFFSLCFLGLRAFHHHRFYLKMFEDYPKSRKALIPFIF

T3: 5α reductase type 1 (Homo sapiens, UniProt P18405)
T3 construct: host or cells: CHO 1827
T3 sequence (P18405 1-259): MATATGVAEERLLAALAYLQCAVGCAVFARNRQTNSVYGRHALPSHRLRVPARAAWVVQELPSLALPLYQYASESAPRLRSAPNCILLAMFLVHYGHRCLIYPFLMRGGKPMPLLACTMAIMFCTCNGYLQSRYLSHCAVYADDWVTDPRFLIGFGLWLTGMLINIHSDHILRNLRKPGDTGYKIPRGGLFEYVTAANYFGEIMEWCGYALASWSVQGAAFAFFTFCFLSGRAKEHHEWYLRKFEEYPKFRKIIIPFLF


How the values were obtained:
AR = target: T1, AR; experiment: [3H]R1881 binding assay on cytosol fractions of BPH fragments; parameters: from tissue; host or cells: human BPH prostatic tissue, cytosol fraction
Method: Prostatic tissues for binding assay were obtained from patients who underwent suprapubic adenomectomy for BPH. No pharmacological treatment was performed in the 3 months preceding surgery. After surgery, the tissues were immediately placed in liquid nitrogen and stored at −80° C. until processing.
Protein content was determined by the known method of Bradford, using BSA as a standard.

BPH cells [1] = experiment: In situ end labeling (ISEL) of apoptotic BPH cells; assay type: cell-based, human; conditions: for change in percentage of apoptotic nuclei vs untreated cells: 48 h, Compound A 10 nM, T 10 nM, GFs 10 ng/ml
Method: (§1) Human BPH cells, prepared, maintained and used as previously described in Crescioli C, et al. Journal of Clinical and Endocrinology Metabolism (2000) 85 p 2576-2583, were obtained from prostate tissues derived from 5 patients, who underwent suprapubic adenomectomy for BPH, after informed consent and approval by the Local Ethical Committee.
ISEL was performed onto BPH cells using Apop Tag in situ apoptosis detection kit peroxydase following the manufacturer's instruction. Cells were incubated with T (10 nM), KGF (10 ng/ml) or Des(1-3)IGF-I (10 ng/ml) with or without Compound A (10 nM). The percentage of apoptotic cells (the number of stained cells divided by the total number of cells) was calculated in at least five separate fields per slide in five different slides. Results are expressed as mean±SEM from three separate experiments.

BPH cells [2] = experiment: BPH cell proliferation assay; assay type: cell-based, human; conditions: 48 h; for BPH cell proliferation increased by stimulus: T 10 nM or GF 10 ng/ml; for effect on DHT-stimulated BPH cell proliferation: DHT 10 nM; for effect on DHT-stimulated BPH cell proliferation / effect on T-stimulated BPH cell proliferation: Compound A 1 nM, F 1 nM, Cyp 100 nM; for effect on T-stimulated BPH cell proliferation: T 10 nM
Method: as §1
For all cell proliferation assay, 4×10^4 BPH cells were seeded onto 12-well plates in their growth medium, starved in red- and serum-free medium containing 0.1% BSA for 24 h, and then treated with specific stimuli for 48 h. Cells in phenol red- and serum-free medium containing 0.1% BSA were used as controls. Thereafter, cells were trypsinized, and each experimental point was derived from hemocytometer counting, averaging at least six different fields for each well, as previously reported (see Crescioli C, et al. Journal of Clinical and Endocrinology Metabolism (2000) 85 p 2576-2583). […] Growth assays were also carried out using a fixed concentration of androgens (10 nM) with or without Compound A (1 nM, 10 nM) or the anti-androgens finasteride (F, 1 nM) and cyproterone acetate (Cyp, 100 nM). Growth assays were also performed using a fixed concentration of T (10 nM) or GFs (10 ng/ml) with or without Compound A (10 nM). In the same experiment, each experimental point was repeated in triplicate or quadruplicate and experiments were performed 3 times. Results are expressed as % variation (mean±SEM) over the maximal T or GF-induced stimulation.

5α reductase type 2 = target: T2, 5α reductase type 2; experiment: 5α reductase inhibition test in CHO 1829 cells; assay type: cell-based; conditions: CHO cells transfected with type 2, n=3
Method: (§2) CHO-1827 and CHO-1829 cells, transfected with 5α reductase type 1 (5αR-1) or type 2 (5αR-2), respectively (see Steers W. Urology (2001) 58 p 17-24), were maintained in Ham's F12 medium supplemented with 5% FCS.
(§3) 5α reductase inhibition assay was performed using CHO 1827 cells, transfected with 5αR-1, or CHO 1829 cells, transfected with 5αR-2, as described (see Guarna A, et al. Journal of Medicinal Chemistry (2000) 43 3718-3735.). Compound A was added in a concentration range from 10^−9 to 10^−5 M, using finasteride as a control inhibitor in each experiment.

rat ventral prostate = experiment: Clusterin expression (Northern, immunohistochemistry) and TUNEL in rat ventral prostate; assay type: in vivo; conditions: orchidectomized T-supplemented rats; Compound A 300 and 100 μg/Kg, F 40 mg/Kg
Method: Total RNA was extracted using RNAFast from Molecular System (San Diego, Calif.). Blotting, labelling, hybridization conditions and probes (rat clusterin 1.5 Kb full-length cDNA and GAPDH 1.2 Kb full-length cDNA) were performed according to the reported procedures (Bettuzzi et al, Biochemical Journal, (1989), 257, p 293-296 and Marinelli et al, Biochemistry and Cell Biology, (1994), 72, p 515-521). Quantitation of the autoradiograms was obtained by densitometric scanning using an LKB Ultrascan XL densitometer.
All the cryostatic sections obtained from controls and treated rats were processed in parallel as previously described (Astancolle et al, Journal of Endocrinology, (2000), 167, p 197-204). For every experimental condition, 3 alternate sections from 3 different rat prostates were examined. […] Counterstaining was performed with haematoxylin, and cover slips were mounted with Eukitt (O. Kindler GmbH & Co, Germany). Digital high-magnification colour images were acquired by a CCD camera through the microscope.
DNA fragmentation in prostate cryostatic sections, assessed by terminal deoxynucleotidyl transferase (TdT)-mediated dUTP nick end-labelling (TUNEL), was performed using the In Situ Cell Death Detection Kit (POD, Roche) as recommended by the manufacturer. TUNEL positive apoptotic nuclei were documented by digital high-magnification colour images acquired by a CCD camera through the microscope. Counterstaining was performed with eosin, and cover slips were mounted with Eukitt (O Kindler GmbH & Co, Germany).

5α reductase type 1 = target: T3, 5α reductase type 1; experiment: 5α reductase inhibition test in CHO 1827 cells; assay type: cell-based; conditions: CHO cells transfected with type 1, n=3
Method: as §2, §3

| Molecule | change in percentage of apoptotic nuclei vs untreated cells (BPH cells [1]) | BPH cell proliferation increased by stimulus (BPH cells [2]) | effect on DHT-stimulated BPH cell proliferation (BPH cells [2]) | effect on T-stimulated BPH cell proliferation (BPH cells [2]) | also measured |
| --- | --- | --- | --- | --- | --- |
| C[C@]1(O)CC[C@H]2[C@@H]3CCC4=CC(=O)CCC4=C3C=C[C@@]21C [Compound R1881, reference compound] |  |  |  |  | competition for [3H]-R1881 binding (AR): completely displaced |
| C[C@]12CC[C@H]3[C@@H](CCC4=CC(=O)CC[C@@]43C)[C@@H]1CC[C@@H]2O [T, testosterone, reference compound] | −27% | 156±8% |  |  |  |
| C=C1/C(=C\C=C2/CCC[C@]3(C)[C@@H]([C@H](C)CCCC(C)(C)O)CC[C@@H]23)C[C@@H](O)C[C@@H]1O [calcitriol, 1,25-dihydroxyvitamin D3, reference compound] |  |  |  |  | IC50 (BPH cells [2]; Homo sapiens, read-out: −log IC50, inhibition of BPH cell growth (converted)): 0.0631 nM; maximal inhibition (Imax) of BPH cell growth (BPH cells [2]; unstimulated BPH cells, Imax shared by both secosteroids): 43±1% |
| CC(=O)O[C@]1(C(C)=O)CC[C@H]2[C@@H]3C=C(Cl)C4=CC(=O)[C@@H]5C[C@@H]5[C@]4(C)[C@H]3CC[C@@]21C [cyproterone acetate, reference compound] |  |  | significantly blocked | significantly blocked |  |
| CC(C)(C)NC(=O)[C@H]1CC[C@H]2[C@@H]3CC[C@H]4NC(=O)C=C[C@]4(C)[C@H]3CC[C@]12C [finasteride, 17β-(N,t-butyl)carbamoyl-4-aza-5α-androst-1-en-3-one, reference compound] |  |  | effective only against T | antagonized only T-induced cell growth; also recorded: effective only against T | IC50 (5α reductase type 2): 53.7 ± 11 nM; clusterin mRNA expression in ventral prostate (Northern) (rat ventral prostate): partially blunted the T-induced down-regulation of clusterin gene expression; IC50 (5α reductase type 1): 659 ± 100 nM |
| KGF: Keratinocyte growth factor from Pepro Tech EC (protein, UniProt P21781 32-194, looked up) Fibroblast growth factor 7: CNDMTPEQMATNVNCSSPERHTRSYDYMEGGDIRVRRLFCRTQWYLRIDKRGKVKGTQEMKNNYNIMEIRTVAVGIVAIKGVESEFYLAMNKEGKLYAKKECNEDCNFKELILENHYNTYASAKWTHNGGEMFVALNQKGIPVRGKKTKKEQKTAHFLPMAIT | −54% | 183±5% |  |  | Apoptotic index (%) (BPH cells [1]; GF 10 ng/ml or T 10 nM alone, ISEL): 8.5 ± 0.42^a % |
